Data reported in ChEMBL document CHEMBL2203228, “Structural modifications of a 3-methoxy-2-aminopyridine compound to reduce potential for mutagenicity and time-dependent drug-drug interaction” (Bioorg Med Chem Lett, 2012).
pIC50: −log10 of the molar value. ≈ marks a conversion by molar mass, not a printed value.

How the values were obtained:
[1] = target: T1, Cytochrome P450 3A4 (Homo sapiens, UniProt P08684); assay: Time dependent inhibition of human liver microsome CYP3A4 assessed as change in midazolam metabolism at 60 uM by two-step reaction; format: ADME; parameters: scale not given: the % may be the effect or the level left; details: microsomes
[2] = tested on: Salmonella typhimurium; assay: Mutagenic activity in Salmonella typhimurium assessed as fold increase in colony forming units by Bioluminescent Ames assay relative to control; format: toxicity, organism-based; details: salmonella enterica subsp. enterica serovar typhimurium
[3] = Clearance in rat; format: ADME, organism-based; details: in vivo
[4] = target: Serine/threonine-protein kinase B-raf (Homo sapiens, UniProt P15056, V600E); assay: Inhibition of B-Raf V600E mutant -mediated MEK phosphorylation
[5] = target: T1, Cytochrome P450 3A4; assay: Time dependent inhibition of CYP3A4; format: ADME; details: TDE = time-dependent effect
[6] = Solubility of the compound; format: physicochemical
[7] = Oral bioavailability in rat; format: ADME, organism-based; details: in vivo
[8] = Half life in rat; format: ADME, organism-based; details: in vivo

T1 sequence (P08684 whole entry): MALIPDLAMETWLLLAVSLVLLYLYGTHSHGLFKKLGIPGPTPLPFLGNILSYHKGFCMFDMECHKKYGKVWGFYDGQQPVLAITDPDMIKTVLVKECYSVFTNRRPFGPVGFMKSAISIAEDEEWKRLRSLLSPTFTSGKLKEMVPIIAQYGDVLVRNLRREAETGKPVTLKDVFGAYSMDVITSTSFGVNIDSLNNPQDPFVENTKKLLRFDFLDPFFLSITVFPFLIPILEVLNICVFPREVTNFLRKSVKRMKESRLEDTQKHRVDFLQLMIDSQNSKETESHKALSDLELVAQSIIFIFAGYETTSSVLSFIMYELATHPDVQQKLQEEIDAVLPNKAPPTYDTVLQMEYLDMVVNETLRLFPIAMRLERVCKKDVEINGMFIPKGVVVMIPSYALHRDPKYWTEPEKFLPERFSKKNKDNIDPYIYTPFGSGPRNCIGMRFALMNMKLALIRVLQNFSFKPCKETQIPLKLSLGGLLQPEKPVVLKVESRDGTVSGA
Chain of Serine/threonine-protein kinase B-raf (P15056 2-766 V600E limits assumed): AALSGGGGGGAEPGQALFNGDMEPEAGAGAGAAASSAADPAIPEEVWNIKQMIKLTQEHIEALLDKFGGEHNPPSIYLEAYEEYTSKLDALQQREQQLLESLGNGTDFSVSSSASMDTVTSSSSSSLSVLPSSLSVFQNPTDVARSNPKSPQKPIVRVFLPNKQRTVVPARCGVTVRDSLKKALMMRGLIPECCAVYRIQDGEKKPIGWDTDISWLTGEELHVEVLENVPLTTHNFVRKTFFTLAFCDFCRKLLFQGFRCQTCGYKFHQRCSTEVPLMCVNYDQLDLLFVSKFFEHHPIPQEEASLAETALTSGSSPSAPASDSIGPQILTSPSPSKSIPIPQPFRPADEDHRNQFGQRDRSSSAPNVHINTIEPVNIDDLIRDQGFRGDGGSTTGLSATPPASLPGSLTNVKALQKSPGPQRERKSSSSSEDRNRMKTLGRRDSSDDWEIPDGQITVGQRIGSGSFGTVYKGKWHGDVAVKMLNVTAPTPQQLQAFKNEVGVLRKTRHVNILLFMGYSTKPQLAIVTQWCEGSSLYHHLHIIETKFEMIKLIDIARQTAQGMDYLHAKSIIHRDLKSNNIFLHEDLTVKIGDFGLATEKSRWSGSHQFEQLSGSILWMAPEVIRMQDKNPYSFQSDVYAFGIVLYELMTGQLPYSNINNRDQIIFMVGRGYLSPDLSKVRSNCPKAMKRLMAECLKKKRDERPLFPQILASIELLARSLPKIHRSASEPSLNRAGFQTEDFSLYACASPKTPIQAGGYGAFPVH

Structure (SMILES) | Activity [1] [%] | fold change (FC) [2] | further results
CC(=O)c1cc(-c2nn(C(C)C)cc2-c2ccnc(NC[C@H](C)O)n2)cnc1N | < 30 | < 2 | –
COc1cncc(-c2nn(C(C)C)cc2-c2ccnc(NC[C@H](C)O)n2)c1 | < 30 | < 2 | –
CC(C)n1cc(-c2ccnc(NC[C@H](C)O)n2)c(-c2cnc3[nH]ncc3c2)n1 | < 30 | < 2 | –
CC(C)n1cc(-c2ccnc(NC[C@H](C)O)n2)c(-c2cnc3[nH]ccc3c2)n1 | 11 | < 2 | –
Cc1c[nH]c2ncc(-c3nn(C(C)C)cc3-c3ccnc(NC[C@H](C)O)n3)cc12 | 11 | < 2 | –
CC(C)n1cc(-c2ccnc(NC[C@H](C)O)n2)c(-c2cnc3[nH]cc(Cl)c3c2)n1 | 11 | < 2 | –
COc1cc(-c2nn(C(C)C)cc2-c2ccnc(NC[C@H](C)O)n2)cnc1N | 13 | 4 | clearance [3]: 56.3 mL/min/kg; pIC50 [4]: 8.19; inhibition (INH) [5]: tde; solubility [6]: 503 µM (≈ 193 µg/mL); bioavailability [7]: 43%; Activity [2]: Non-toxic; half-life [8]: 4.43 h
COc1cc(-c2nn(C(C)C)cc2-c2ccnc(NC[C@H](C)O)n2)c(C)nc1N | – | – | Activity [2]: Toxic
COc1nc(-c2nn(C(C)C)cc2-c2ccnc(NC[C@H](C)O)n2)cnc1N | 30 | 4 | –
